Columns and labels:
Assay type in all cases: in vivo
[1] = test system: Green Soldier Stink Bug (Nezara viridula); assay: Green soldier stink bug, sprayed soybean pods in Petri dishes; settings: 120 h
Method: B.11 Green Soldier Stink Bug (Nezara viridula)
The active compound was dissolved at the desired concentration in a mixture of 1:1 (vol:vol) distilled water:acetone. Surfactant (Kinetic HV) was added at a rate of 0.01% (vol/vol). The test solution was prepared at the day of use.
Soybean pods were placed in glass Petri dishes lined with moist filter paper and inoculated with ten late 3rd instar N. viridula. Using a hand atomizer, approximately 2 ml solution is sprayed into each Petri dish. Assay arenas were kept at about 25° C. Percent mortality was recorded after 5 days.

[2] = test system: Boll Weevil (Anthonomus grandis); assay: Boll weevil, insect diet microtiter plate test; settings: 120 h
Method: B.5 Boll Weevil (Anthonomus grandis)
For evaluating control of boll weevil (Anthonomus grandis) the test unit consisted of 96-well-microtiter plates containing an insect diet and 5-10 A. grandis eggs.
The compounds were formulated using a solution containing 75% v/v water and 25% v/v DMSO. Different concentrations of formulated compounds were sprayed onto the insect diet at 5 μl, using a custom built micro atomizer, at two replications.
After application, microtiter plates were incubated at about 25±1° C. and about 75±5% relative humidity for 5 days. Egg and larval mortality was then visually assessed.

[3] = test system: Orchid Thrips (dichromothrips corbetti); assay: Orchid thrips, floral-immersion technique; settings: Thrips, 72 h
Method: B.7 Orchid Thrips (dichromothrips corbetti)
Dichromothrips corbetti adults used for bioassay were obtained from a colony maintained continuously under laboratory conditions. For testing purposes, the test compound is diluted in a 1:1 mixture of acetone:water (vol:vol), plus Kinetic HV at a rate of 0.01% v/v.
Thrips potency of each compound was evaluated by using a floral-immersion technique. All petals of individual, intact orchid flowers were dipped into treatment solution and allowed to dry in Petri dishes. Treated petals were placed into individual re-sealable plastic along with about 20 adult thrips. All test arenas were held under continuous light and a temperature of about 28° C. for duration of the assay. After 3 days, the numbers of live thrips were counted on each petal. The percent mortality was recorded 72 hours after treatment.

[4] = test system: Mediterranean Fruitfly (Ceratitis capitata); assay: Mediterranean fruitfly, insect diet microtiter plate test; settings: 120 h
Method: B.6 Mediterranean Fruitfly (Ceratitis capitata)
For evaluating control of Mediterranean fruitfly (CeratitiS capitata) the test unit consisted of microtiter plates containing an insect diet and 50-80 C. capitata eggs. The compounds were formulated using a solution containing 75% v/v water and 25% v/v DMSO. Different concentrations of formulated compounds were sprayed onto the insect diet at 5 μl, using a custom built micro atomizer, at two replications.
(§1) After application, microtiter plates were incubated at about 28±1° C. and about 80±5% relative humidity for 5 days. Egg and larval mortality was then visually assessed.

[5] = test system: Neotropical Brown Stink Bug (Euschistus heros); assay: Neotropical brown stink bug, sprayed soybean pods in cups; settings: 120 h
Method: B.12 Neotropical Brown Stink Bug (Euschistus heros)
(§2) The active compound was dissolved at the desired concentration in a mixture of 1:1 (vol:vol) distilled water: acetone. Surfactant (Kinetic HV) was added at a rate of 0.01% (vol/vol). The test solution was prepared at the day of use.
Soybean pods were placed in microwavable plastic cups and inoculated with ten adult stage E. heros. Using a hand atomizer, approximately 1 ml solution is sprayed into each cup, insects and food present. A water source was provided (cotton wick with water). Each treatment was replicated 2-fold. Assay arenas were kept at about 25° C. Percent mortality was recorded after 5 days.

[6] = test system: Brown Marmorated Stink Bug (Halyomorpha halys); assay: Brown marmorated stink bug, sprayed peanuts and soybean seeds in cups; settings: 120 h
Method: B.13 Brown Marmorated Stink Bug (Halyomorpha halys)
as §2
Row peanuts and soybean seeds were placed into microwavable plastic cups and inoculated with five adult stage H. halys. Using a hand atomizer, approximately 1 ml solution is sprayed into each cup, insects and food present. A water source was provided (cotton wick with water). Each treatment is replicated 4-fold. Assay arenas are kept at about 25° C. Percent mortality was recorded after 5 days.

[7] = test system: Red Spider Mite (Tetranychus kanzawai); assay: Red spider mite, sprayed cowpea beans; settings: 72 h
Method: B.9 Red Spider Mite (Tetranychus kanzawai)
The active compound was dissolved at the desired concentration in a mixture of 1:1 (vol:vol) distilled water:acetone. Add surfactant (Kinetic HV) was added at a rate of 0.01% (vol/vol). The test solution was prepared at the day of use.
Potted cowpea beans of 4-5 days of age were cleaned with tap water and sprayed with 1-2 ml of the test solution using air driven hand atomizer. The treated plants were allowed to air dry and afterwards inoculated with 30 or more mites by clipping a cassava leaf section from rearing population. Treated plants were placed inside a holding room at about 25-27° C. and about 50-60% relative humidity. Percent mortality was assessed 72 hours after treatment.

[8] = test system: Vetch Aphid (Megoura viciae); assay: Vetch aphid, broad bean leaf disk test; settings: foliar, 120 h
Method: B.3 Vetch Aphid (Megoura viciae)
For evaluating control of vetch aphid (Megoura viciae) through contact or systemic means the test unit consisted of 24-well-microtiter plates containing broad bean leaf disks.
The compounds were formulated using a solution containing 75% v/v water and 25% v/v DMSO. Different concentrations of formulated compounds were sprayed onto the leaf disks at 2.5 μl, using a custom built micro atomizer, at two replications.
After application, the leaf disks were air-dried and 5-8 adult aphids placed on the leaf disks inside the microtiter plate wells. The aphids were then allowed to suck on the treated leaf disks and incubated at about 23±1° C. and about 50±5% relative humidity for 5 days. Aphid mortality and fecundity was then visually assessed.

[9] = test system: Southern Armyworm (Spodoptera eridania); assay: Southern armyworm, sprayed lima bean plants; settings: 96 h
Method: B.10 Southern Armyworm (Spodoptera eridania)
The active compounds were formulated in cyclohexanone as a 10,000 ppm solution supplied in tubes. The tubes were inserted into an automated electrostatic sprayer equipped with an atomizing nozzle and they served as stock solutions for which lower dilutions were made in 50% acetone:50% water (v/v). A nonionic surfactant (Kinetic®) was included in the solution at a volume of 0.01% (v/v).
Lima bean plants (variety Sieva) were grown 2 plants to a pot and selected for treatment at the 1st true leaf stage. Test solutions were sprayed onto the foliage by an automated electrostatic plant sprayer equipped with an atomizing spray nozzle. The plants were dried in the sprayer fume hood and then removed from the sprayer. Each pot was placed into perforated plastic bags with a zip closure. About 10 to 11 armyworm larvae were placed into the bag and the bags zipped closed. Test plants were maintained in a growth room at about 25° C. and about 20-40% relative humidity for 4 days, avoiding direct exposure to fluorescent light (24 hour photoperiod) to prevent trapping of heat inside the bags. Mortality and reduced feeding were assessed 4 days after treatment, compared to untreated control plants.

[10] = test system: Rice Green Leafhopper (Nephotettix virescens); assay: Rice green leafhopper, sprayed rice seedlings; settings: 72 h
Method: B.8 Rice Green Leafhopper (Nephotettix virescens)
Rice seedlings were cleaned and washed 24 hours before spraying. The active compounds were formulated in 1:1 acetone:water (vol:vol), and 0.01% vol/vol surfactant (Kinetic HV) was added. Potted rice seedlings were sprayed with 5-6 ml test solution, air dried, covered with Mylar cages cages and inoculated with 10 adults. Treated rice plants were kept at about 28-29° C. and relative humidity of about 50-60%. Percent mortality was recorded after 72 hours.

[11] = test system: Tobacco Budworm (Heliothis virescens); assay: Tobacco budworm, insect diet microtiter plate test; settings: 120 h
Method: B.4 Tobacco Budworm (Heliothis virescens)
For evaluating control of tobacco budworm (HeliothiS virescens) the test unit consisted of 96-well-microtiter plates containing an insect diet and 15-25 H. virescens eggs.
The compounds were formulated using a solution containing 75% v/v water and 25% v/v DMSO. Different concentrations of formulated compounds were sprayed onto the insect diet at 10 μl, using a custom built micro atomizer, at two replications.
as §1

[12] = test system: Diamond Back Moth (Plutella xylostella); assay: Diamond back moth, cabbage leaf dip test; settings: foliar, 72 h
Method: B.1 Diamond Back Moth (Plutella xylostella)
The active compound was dissolved at the desired concentration in a mixture of 1:1 (vol:vol) distilled water:aceteone. Surfactant (Kinetic HV) was added at a rate of 0.01% (vol/vol). The test solution was prepared at the day of use.
Leaves of cabbage were dipped in test solution and air-dried. Treated leaves were placed in petri dishes lined with moist filter paper and inoculated with ten 3rd instar larvae. Mortality was recorded 72 hours after treatment.

[13] = test system: Green Peach Aphid (Myzus persicae); assay: Green peach aphid, systemic test on artificial diet in microtiter plates; settings: 72 h
Excerpt: B.2 Green Peach Aphid (Myzus persicae)
For evaluating control of green peach aphid (Myzus persicae) through systemic means the test unit consisted of 96-well-microtiter plates containing liquid artificial diet under an artificial mem brane.
The compounds were formulated using a solution containing 75% v/v water and 25% v/v DMSO. Different concentrations of formulated compounds were pipetted into the aphid diet, using a custom built pipetter, at two replications.
After application, 5-8 adult aphids were placed on the artificial membrane inside the microtiter plate wells. The aphids were then allowed to suck on the treated aphid diet and incubated at about 23±1° C. and about 50±5% relative humidity for 3 days. Aphid mortality and fecundity was then visually assessed.

O=C(NCc1ccccn1)c1ccc(C2=NOC(c3cc(Cl)cc(Cl)c3)(C(F)(F)F)C2)c2c1CCC2 (stereo not shown) [Compound 1-27, 7-[5-(3,5-dichlorophenyl)-5-(trifluoromethyl)-4H-isoxazol-3-yl]-N-(2-pyridylmethyl)indane-4-carboxamide]
≥ 75%: mortality at 300 ppm [1] | mortality at 2500 ppm [2] | mortality at 300 ppm [3] | mortality at 2500 ppm [4] | mortality at 100 ppm [5] | mortality at 100 ppm [6] | mortality at 300 ppm [7] | mortality at 2500 ppm [8] | mortality at 1 ppm [9] | mortality at 300 ppm [10] | mortality at 2500 ppm [11] | mortality at 300 ppm [12] | mortality at 2500 ppm [13]
